According to ChEMBL document CHEMBL1201862, “PubChem BioAssay data set” (2004):
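96-well plates; 48 h exposure; 5 concentrations. Endpoints by linear interpolation between flanking doses. Not reached: highest tested concentration assigned. Here, GI50 denotes the concentration required for 50% inhibition of growth.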 Active and inactive are the calls of the source. No stated cut-off is given here; in the data, active = GI50 up to about 1.1 µM and inactive = higher.

Legend:
Experiment in all cases: NCI anticancer screen, dose series, 48 h
COLO 205 = system: COLO 205
EKVX = system: EKVX
HCT-15 = system: HCT-15
Hs-578T = system: Hs-578T
M14 = system: M14
MCF7 = system: MCF7
NCI-H226 = system: NCI-H226
NCI-H23 = system: NCI-H23
NCI-H460 = system: NCI-H460
OVCAR-4 = system: OVCAR-4
OVCAR-8 = system: OVCAR-8
SF-295 = system: SF-295
SK-MEL-28 = system: SK-MEL-28
SK-OV-3 = system: SK-OV-3
SR = system: SR
SW-620 = system: SW-620
T47D = system: T47D
TK-10 = system: TK-10
SK-MEL-2 = system: SK-MEL-2
A498 = system: A498

SMILES	GI50 (COLO 205)	GI50 (EKVX)	GI50 (HCT-15) [µM]	GI50 (Hs-578T)	GI50 (M14)	GI50 (MCF7)	GI50 (NCI-H226)	GI50 (NCI-H23)	GI50 (NCI-H460)	GI50 (OVCAR-4)	GI50 (OVCAR-8)	GI50 (SF-295)	GI50 (SK-MEL-28)	GI50 (SK-OV-3)	GI50 (SR)	GI50 (SW-620)	GI50 (T47D)	GI50 (TK-10)	GI50 (SK-MEL-2)	GI50 (A498)
CN(/N=C/C=N/N(C)C1=NCCCCN1)C1=NCCCCN1	> 100 µM (inactive)	> 100 µM (inactive)	> 100	> 100 µM (inactive)	> 100 µM (inactive)	> 100 µM (inactive)	> 100 µM (inactive)	> 100 µM (inactive)	> 100 µM (inactive)	> 100 µM (inactive)	> 100 µM (inactive)	> 100 µM (inactive)	> 100 µM (inactive)	> 100 µM (inactive)	> 100 µM (inactive)	> 100 µM (inactive)	> 100 µM (inactive)	> 100 µM (inactive)	–	–
COc1cc2c(cc1OCCCCCCCCCCN1C(=O)c3cccc4cccc(c34)C1=O)N=C[C@@H]1CCCN1C2=O	3.52 µM (inactive)	2.11 µM (inactive)	4.8	6.89 µM (inactive)	13.7 µM (inactive)	2.01 µM (inactive)	1.72 µM (inactive)	6.21 µM (inactive)	19.9 µM (inactive)	1.31 µM (inactive)	4.95 µM (inactive)	6.55 µM (inactive)	12.3 µM (inactive)	6.68 µM (inactive)	0.902 µM (active)	4.34 µM (inactive)	4.41 µM (inactive)	13.5 µM (inactive)	3.74 µM (inactive)	–
O=C(Cc1ccccc1)NN1C(=O)/C(=C\c2cccc([N+](=O)[O-])c2)S/C1=N\c1ccccc1	> 100 µM (inactive)	> 100 µM (inactive)	> 100	> 100 µM (inactive)	> 100 µM (inactive)	34.7 µM (inactive)	> 100 µM (inactive)	> 100 µM (inactive)	> 100 µM (inactive)	> 100 µM (inactive)	> 100 µM (inactive)	> 100 µM (inactive)	> 100 µM (inactive)	> 100 µM (inactive)	–	> 100 µM (inactive)	> 100 µM (inactive)	> 100 µM (inactive)	> 100 µM (inactive)	> 100 µM (inactive)
CC1(C)OC[C@@]2([C@@H]3CC[C@@H](C3)C2(C)C)N1O	> 100 µM (inactive)	> 100 µM (inactive)	> 100	> 100 µM (inactive)	> 100 µM (inactive)	> 100 µM (inactive)	> 100 µM (inactive)	> 100 µM (inactive)	> 100 µM (inactive)	> 100 µM (inactive)	> 100 µM (inactive)	> 100 µM (inactive)	46.9 µM (inactive)	> 100 µM (inactive)	–	> 100 µM (inactive)	> 100 µM (inactive)	> 100 µM (inactive)	> 100 µM (inactive)	> 100 µM (inactive)
O=C1N2CCC[C@H]2CS1(=O)=O	12.2 µM (inactive)	22 µM (inactive)	12.6	55.1 µM (inactive)	14.6 µM (inactive)	6.73 µM (inactive)	25.4 µM (inactive)	15.8 µM (inactive)	32.7 µM (inactive)	11.8 µM (inactive)	13.6 µM (inactive)	40.2 µM (inactive)	18.4 µM (inactive)	36.6 µM (inactive)	–	8 µM (inactive)	13.5 µM (inactive)	18.2 µM (inactive)	17.6 µM (inactive)	20.4 µM (inactive)
O=[N+]([O-])c1cccc(/N=C2\c3ccccc3CN2c2cccc([N+](=O)[O-])c2)c1	> 100 µM (inactive)	> 100 µM (inactive)	> 100	37.8 µM (inactive)	> 100 µM (inactive)	33.7 µM (inactive)	> 100 µM (inactive)	> 100 µM (inactive)	> 100 µM (inactive)	65.9 µM (inactive)	> 100 µM (inactive)	> 100 µM (inactive)	> 100 µM (inactive)	> 100 µM (inactive)	–	> 100 µM (inactive)	> 100 µM (inactive)	> 100 µM (inactive)	> 100 µM (inactive)	> 100 µM (inactive)
COc1ccc(-c2nc(N3CCCC3)no2)cc1	> 100 µM (inactive)	25.9 µM (inactive)	58.9	24.9 µM (inactive)	81.3 µM (inactive)	43.2 µM (inactive)	42.7 µM (inactive)	54.6 µM (inactive)	33 µM (inactive)	34 µM (inactive)	34.5 µM (inactive)	21.2 µM (inactive)	> 100 µM (inactive)	58.9 µM (inactive)	–	> 100 µM (inactive)	26.5 µM (inactive)	> 100 µM (inactive)	46.1 µM (inactive)	31.6 µM (inactive)
CSc1ccsc1-c1sc(-c2cc(SC)c(-c3sc(-c4cc(SC)c(-c5sccc5SC)s4)cc3SC)s2)cc1SC	33.4 µM (inactive)	> 100 µM (inactive)	> 100	> 100 µM (inactive)	> 100 µM (inactive)	57.1 µM (inactive)	–	64.9 µM (inactive)	> 100 µM (inactive)	> 100 µM (inactive)	> 100 µM (inactive)	> 100 µM (inactive)	> 100 µM (inactive)	> 100 µM (inactive)	–	21.5 µM (inactive)	28.2 µM (inactive)	> 100 µM (inactive)	> 100 µM (inactive)	> 100 µM (inactive)
CCNCC(=O)Nc1ccc2c(c1)C(=O)c1ccc(NC(=O)CNCC)cc1C2=O	1.71 µM (inactive)	4.93 µM (inactive)	1.93	4.02 µM (inactive)	3.5 µM (inactive)	1.64 µM (inactive)	5.51 µM (inactive)	3.43 µM (inactive)	1.49 µM (inactive)	0.514 µM (active)	2.18 µM (inactive)	3.33 µM (inactive)	5.61 µM (inactive)	2.76 µM (inactive)	–	2.99 µM (inactive)	3.86 µM (inactive)	5.22 µM (inactive)	15.9 µM (inactive)	2.62 µM (inactive)
CCOC(=O)c1nc2ccccc2nc1Oc1ccc(F)cc1	> 100 µM (inactive)	> 100 µM (inactive)	> 100	39.3 µM (inactive)	> 100 µM (inactive)	> 100 µM (inactive)	> 100 µM (inactive)	–	> 100 µM (inactive)	–	> 100 µM (inactive)	70.6 µM (inactive)	> 100 µM (inactive)	> 100 µM (inactive)	–	> 100 µM (inactive)	> 100 µM (inactive)	> 100 µM (inactive)	> 100 µM (inactive)	> 100 µM (inactive)
COC(=O)CCc1ccc2c(c1)CC1(Cc3ccccc3C1)C2	> 100 µM (inactive)	> 100 µM (inactive)	> 100	> 100 µM (inactive)	> 100 µM (inactive)	> 100 µM (inactive)	> 100 µM (inactive)	> 100 µM (inactive)	–	> 100 µM (inactive)	> 100 µM (inactive)	> 100 µM (inactive)	–	> 100 µM (inactive)	–	–	> 100 µM (inactive)	> 100 µM (inactive)	14.3 µM (inactive)	> 100 µM (inactive)
COc1ccc2oc(=O)c(-c3csc(-c4ccccc4)n3)cc2c1	> 100 µM (inactive)	41.4 µM (inactive)	> 100	37.8 µM (inactive)	> 100 µM (inactive)	94.6 µM (inactive)	39.2 µM (inactive)	–	54 µM (inactive)	31 µM (inactive)	–	22.8 µM (inactive)	> 100 µM (inactive)	17.3 µM (inactive)	> 100 µM (inactive)	57.7 µM (inactive)	> 100 µM (inactive)	22.9 µM (inactive)	> 100 µM (inactive)	–
O=C(O)C(Cc1cc(I)c(O)c(I)c1)C1CCCCC1 (stereo not drawn)	–	31.9 µM (inactive)	31.7	27.9 µM (inactive)	45.5 µM (inactive)	–	61.5 µM (inactive)	24 µM (inactive)	18.1 µM (inactive)	59.6 µM (inactive)	38.6 µM (inactive)	35.6 µM (inactive)	59.7 µM (inactive)	–	33.1 µM (inactive)	58.9 µM (inactive)	29.9 µM (inactive)	24 µM (inactive)	–	21.3 µM (inactive)
Cc1cn(C2CC(N=[N+]=[N-])C(CO)O2)c(=O)n(CCCCO)c1=O (stereo not drawn)	> 100 µM (inactive)	> 100 µM (inactive)	> 100	> 100 µM (inactive)	> 100 µM (inactive)	> 100 µM (inactive)	> 100 µM (inactive)	> 100 µM (inactive)	> 100 µM (inactive)	> 100 µM (inactive)	> 100 µM (inactive)	> 100 µM (inactive)	> 100 µM (inactive)	> 100 µM (inactive)	–	> 100 µM (inactive)	> 100 µM (inactive)	> 100 µM (inactive)	> 100 µM (inactive)	> 100 µM (inactive)
COc1ccc(/C=C/C(=O)/C=C/c2ccc(OC)cc2OC)c(OC)c1	5.61 µM (inactive)	9.08 µM (inactive)	3.75	26.3 µM (inactive)	7.14 µM (inactive)	2.4 µM (inactive)	12.9 µM (inactive)	10.2 µM (inactive)	5.08 µM (inactive)	12.3 µM (inactive)	11.6 µM (inactive)	24.7 µM (inactive)	4.83 µM (inactive)	7.35 µM (inactive)	3.64 µM (inactive)	5.32 µM (inactive)	4.47 µM (inactive)	14.5 µM (inactive)	1.33 µM (inactive)	–
